The values below come from patent US20150133411A1, “COMPOUNDS WITH TRPV4 ACTIVITY, COMPOSITIONS AND ASSOCIATED METHODS THEREOF” (The University of Utah Research Foundation, priority 2012, published 2015).

Test [1] deals with retinal neurons (RGCs) and glia (Müller cells). Kind of test: Hypotonic stimuli: cell swelling (change in cell area) and [Ca++]i. It is filed as cell-based. The conditions noted are these: hypotonic stimuli, 300 mOsm to 190 mOsm. The text has this: FIG. 18A illustrates the effect of hypotonic stimuli on cell swelling as measured by change in cell area. Hypotonic stimuli were generated by replacing extracellular sodium levels to lower osmolarity from 300 mOsm to 190 mOsm.

Test [2] concerns MB model of glaucoma. As to the kind of experiment: IOP time course after single eye drop in MB model of glaucoma. In kind it is in vivo, mouse. The following applies: eye drop. As to the method: Specifically, microbeads (MBs) were injected into the anterior chamber of a mouse eye as described in Example 2 with PBS-injected eyes used as controls. Compound 1 (10 mg/kg body weight) (or PBS vehicle) was injected intraperitoneally (IP). […] IOP was measured in mice between 10:00 AM and 1:00 PM with the TonoLab rebound tonometer (Colonial Medical Supply, Franconia, NH/Tyolat, Helsinki, Finland). Mice were sedated with IP injection of Avertin with final amount calculated by weight (e.g., 0.5 ml for 21-24 g animals). Animals were placed on a jack stand platform and the tonolab was clamped on a ring stand and centered onto the mid-cornea. During measurements animal were neither restrained nor touched. Each eye was measured twenty consecutive times, the highest and lowest values were discarded and the values were averaged.
FIG. 9 illustrates the short-term effects of a single dose of Compound 1 (eye drop) in the MB model of glaucoma. IOP was measured as described in Example 3 at the indicated time points after receiving a drop of Compound 1. Compound 1 reduced IOP beginning at 1 hour after dosing and continued through 6 hours after dosing.
FIG. 10 illustrates a time course of Compounds 1, 2, 5 and Compound 2-HCl as well as a positive control compound, timolol, with regard to inhibition of IOP. The experiment was conducted as described in Example 9. Each of the TRPV4 antagonists reduced IOP with a similar time course. Specifically, Compounds 1, 2, 5 and Compound 2-HCl reduced IOP for at least 6 hours after dosing.
FIG. 11 illustrates a time course of Compound 2-HCl activity. The experiment was conducted as described in Example 9. […] 2
FIG. 12 illustrates a comparison of the time course of Compound 2-HCl and Compound 5. The experiment was conducted as described in Example 9.

Test [3] has as its target T1, TRPV4 (Mus musculus, UniProt Q9EPK8). As to the kind of experiment: GSK-evoked [Ca++]i in retinal Müller glial cells. In kind it is cell-based. Details: endogenous in cells; host or cells: retinal Müller glial cells. The following applies: retinal Müller glial cells; agonist alone.
Test [4] has as its target T1, TRPV4. Kind of test: AGB cation influx into retinal cells (anti-AGB antibody). In kind it is cell-based. More on the design: these two cell types express TRPV4 channels in the mouse retina; from tissue; host or cells: mouse retina (retinal ganglion cells and Müller glial cells). The conditions noted are these: mouse retina; agonist alone. As to the method: FIG. 16 illustrates the effect of the TRPV4 agonist GSK on cation influx into mouse retinal cells of the mouse retina. The influx was determined using the anti-AGB antibody, as described by Marc R E (J Comp Neurol 407(1): 47-64, 1999). AGB is a membrane permeant cation that can flow through most known cation channels. Using an anti-AGB antibody, it can be determined where the cation flux occurs and, therefore, which cells are activated.

The target of test [5] is T2, TRPV4 (Homo sapiens, UniProt Q9HBA0).
T2 construct: endogenous in cells; host or cells: primary human trabecular meshwork cells from trabeculectomy tissue
Kind of test: Fura-2 calcium imaging of human trabecular meshwork (TM) cells. It is filed as cell-based. The conditions noted are these: bath application 100 nM. As to the method: Pieces of tissue were isolated from a trabeculectomy. Trabecular meshwork cells (TM) were kept in cold L15 medium and then loaded with Fura-2 (10 μm) for 1 hour. Fibroblast-shaped cells were imaged from a TM chunk (˜500 μm×500 μm) with a 40× water immersion objective. The sampling rate was at 6 second intervals. Krebs Ringer Bicarbonate Recording buffer (7.4, 284 mOsm) was prepared as reported by Anthony et al., 1998, IOVS; Prostaglandin F2α receptors in the human trabecular meshwork.
Calcium imaging was performed on TM cells isolated from human patients. In brief, dissociated human TM cells embedded within the tissue were dissociated and plated on concanavalin A-coated (0.2 mg/ml; Sigma) coverslips, loaded with fura-2 AM ([…]; Invitrogen Life Technologies) for 15 min-1 hour and washed for 10 min in dye-free L-15 medium. […] Fluorescence emission was high-pass filtered at 510 nm and captured with cooled digital CCD cameras (HQ2, Photometrics). […] Fluorescence imaging was performed on regions of interest (ROIs) encompassing the TM cell somata, typically at 3×3 binning. Background fluorescence was measured in similarly sized ROIs in neighboring areas devoid of cells. After sequential image acquisition (0.167-0.5 Hz) of cell fluorescence at 340/380 nm, the background was subtracted. […]

Test [6] has as its system retinal ganglion cells. As to the kind of experiment: TUNEL assay of apoptotic cell death in retinas. In kind it is cell-based. As to the method:
Terminal deoxynucleotidyl transferase-mediated dUTP-biotin nick end labeling (TUNEL) is a common method for detecting fragmentation that results from apoptotic signaling cascades. Retinas were embedded, cryosectioned, and processed for the TUNEL assay following the protocol by Gavrieli et al. (1992). After 30 min. rehydration in 70% ethanol, 2×5 min. rinses in PBS and 1% Triton-X in 1% citrate buffer (pH 7.3), the slides were subjected to a final rinse in PBS. Slides were then incubated for 30 min. in the reaction buffer (30 mM Trizma-HCl, 140 mM cacodylate, 1.0 mM CaCl2, 0.2% Triton X-100, pH 7.2). Positive controls were treated with DNAse I (Roche Diagnostics; Branford, Conn.; 10 U/ml) in the reaction buffer. Next, slides were treated for 1 hour with 0.03 units/μl terminal transferase and 4 μM biotin-16-dUTP (Roche Diagnostics). The reaction was terminated in 30 mM Na+ citrate, 300 mM NaCl and 0.2% Triton X-100 in PBS (5 min.) and rinsed in PBS (2×5 min), exposed to 1% bovine serum albumin in PBS for 20 min and rinsed. Apoptotic cells were visualized with a confocal microscope (Zeiss LSM510) and categorized by size. […] This was blocked by RuR and by the TRPV4 antagonist Compound 1.

For test [7], the system named is retinal ganglion cells. Kind of test: In vivo intraocular injection of GSK, NeuN+ RGC count. The conditions noted are these: intraocular injection 100-300 nM, retinas after 48 hours. As to the method: In this experiment, GSK (100-300 nM) was injected intraocularly with a Hamilton syringe. Retinas were isolated after 48 hours, fixed and labeled with the RGC marker antibody NeuN. NeuN-immunopositive somata in the ganglion cell layer, shown in the panel on the right, were counted. The bar graph represents quantification of NeuN^+ cells in the indicated experimental groups.

Test [8] deals with Müller cells. Kind of test: Arachidonic acid-induced [Ca2+]i in Müller cells. In kind it is cell-based. The conditions noted are these: 10 μM. As to the method:
This response is blocked by Compound 1 (1 μM).

T1 sequence (Q9EPK8 whole entry): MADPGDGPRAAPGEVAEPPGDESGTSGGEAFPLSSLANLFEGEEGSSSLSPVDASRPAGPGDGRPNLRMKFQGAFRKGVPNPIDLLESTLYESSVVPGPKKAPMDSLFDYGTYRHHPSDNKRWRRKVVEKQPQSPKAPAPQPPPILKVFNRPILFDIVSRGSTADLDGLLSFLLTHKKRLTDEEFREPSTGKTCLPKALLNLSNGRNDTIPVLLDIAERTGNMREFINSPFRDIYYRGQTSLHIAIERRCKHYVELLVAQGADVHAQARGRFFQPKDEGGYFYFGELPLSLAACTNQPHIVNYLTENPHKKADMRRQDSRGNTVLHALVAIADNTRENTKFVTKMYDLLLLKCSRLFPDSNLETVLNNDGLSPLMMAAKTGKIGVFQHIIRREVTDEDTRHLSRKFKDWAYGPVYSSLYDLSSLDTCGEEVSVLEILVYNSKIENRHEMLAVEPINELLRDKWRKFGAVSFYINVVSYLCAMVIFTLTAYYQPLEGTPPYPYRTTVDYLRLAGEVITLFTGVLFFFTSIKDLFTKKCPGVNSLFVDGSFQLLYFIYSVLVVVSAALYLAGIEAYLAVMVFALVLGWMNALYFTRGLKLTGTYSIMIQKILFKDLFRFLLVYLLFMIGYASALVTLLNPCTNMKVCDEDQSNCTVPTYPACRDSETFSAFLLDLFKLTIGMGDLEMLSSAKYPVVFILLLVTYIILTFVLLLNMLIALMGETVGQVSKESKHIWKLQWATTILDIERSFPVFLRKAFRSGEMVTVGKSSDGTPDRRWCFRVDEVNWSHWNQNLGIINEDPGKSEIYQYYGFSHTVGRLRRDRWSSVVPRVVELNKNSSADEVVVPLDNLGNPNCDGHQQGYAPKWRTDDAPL
T2 sequence (Q9HBA0 whole entry): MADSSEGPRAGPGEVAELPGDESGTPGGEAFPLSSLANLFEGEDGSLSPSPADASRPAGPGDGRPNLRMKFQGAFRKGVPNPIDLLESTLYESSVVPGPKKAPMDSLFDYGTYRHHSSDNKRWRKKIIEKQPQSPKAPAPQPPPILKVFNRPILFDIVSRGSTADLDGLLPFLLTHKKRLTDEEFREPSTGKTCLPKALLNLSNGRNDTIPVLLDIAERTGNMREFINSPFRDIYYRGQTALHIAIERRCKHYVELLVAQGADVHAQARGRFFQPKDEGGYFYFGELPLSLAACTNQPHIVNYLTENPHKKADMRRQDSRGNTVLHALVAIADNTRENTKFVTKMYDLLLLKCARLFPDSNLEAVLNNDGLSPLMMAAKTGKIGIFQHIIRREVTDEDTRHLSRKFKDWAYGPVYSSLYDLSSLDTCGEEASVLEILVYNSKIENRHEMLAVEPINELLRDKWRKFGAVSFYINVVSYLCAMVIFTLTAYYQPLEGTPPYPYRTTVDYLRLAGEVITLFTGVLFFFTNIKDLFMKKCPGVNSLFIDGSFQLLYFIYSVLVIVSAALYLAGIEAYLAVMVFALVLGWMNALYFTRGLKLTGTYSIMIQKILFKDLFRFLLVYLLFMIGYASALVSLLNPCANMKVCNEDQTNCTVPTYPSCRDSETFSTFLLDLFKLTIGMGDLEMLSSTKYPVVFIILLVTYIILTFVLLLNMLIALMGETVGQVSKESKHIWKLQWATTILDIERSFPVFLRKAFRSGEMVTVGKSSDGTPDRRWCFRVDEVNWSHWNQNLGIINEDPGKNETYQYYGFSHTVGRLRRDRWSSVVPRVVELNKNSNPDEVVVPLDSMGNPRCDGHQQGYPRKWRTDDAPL

Turning to `CC(=O)OCOC(=O)CN(CC(=O)OCOC(C)=O)c1ccccc1OCCOc1ccccc1N(CC(=O)OCOC(C)=O)CC(=O)OCOC(C)=O` [BAPTA-AM, reference compound], in test [1], the “cell swelling (change in cell area)” value is reported as “significantly reduced”.
On to `Cc1c(C(=O)Nc2cccc(C(=O)OC(C)C)c2)cc(-c2ccccc2)n1CCCN1CCOCC1.Cl` [Compound 2-HCl, iso-propyl 3-(2-methyl-1-(3-morpholinopropyl)-5-phenyl-1H-pyrrole-3-carboxamido)benzoate hydrochloride], for which the “time of maximal inhibition of IOP” value in test [2] (after dosing) was found to be 6 h.
Consider `CC(C)C[C@H](NC(=O)c1cc2ccccc2s1)C(=O)N1CCN(C(=O)[C@H](CO)NS(=O)(=O)c2ccc(Cl)cc2Cl)CC1` [GSK1016790A, reference compound], for which, in test [3], the “intracellular calcium concentration [Ca++]i” value is “evokes sustained increases”. Besides, the “number of AGB+ cells (cation influx)” value in test [4] is “increased the number of AGB^+ retinal ganglion cells and Müller glial cells”. For the same compound, in test [5], the “340/380 fluorescence ratio (intracellular calcium [Ca++]i)” value is given as “increased 340/380 fluorescence ratio”. In addition, the “death of retinal ganglion cells (TUNEL staining)” value in test [6] (100 nM, agonist alone) is “induced death of retinal ganglion cells”. In addition, in test [7], the “number of retinal ganglion cells (NeuN+ somata)” value is given as “substantially reduces the number of retinal ganglion cells”.
On to `N.N.N.N.N.N.N.N.N.N.N.N.N.N.[Cl-].[Cl-].[Cl-].[Cl-].[Cl-].[Cl-].[O-2].[O-2].[Ru+3].[Ru+3].[Ru+4]` [Ruthenium Red], for which the “apoptotic cell death induced by hypotonic swelling (TUNEL)” value in test [6] (190 mOsm saline, Compound 1 1 uM, RuR 10 μM) is “block apoptotic cell death”. Moreover, the “apoptotic cell death induced by TRPV4 agonist GSK (TUNEL)” value in test [6] (GSK 100 nM, Compound 1 1 uM, RuR 10 μM) is given as “block apoptotic cell death”.
With `CCCCC/C=C\C/C=C\C/C=C\C/C=C\CCCC(=O)O` [arachidonic acid, reference compound], the “[Ca2+]i response” value in test [8] is “increase in [Ca2+]i”.
`CC(C)(C)NC[C@H](O)COc1nsnc1N1CCOCC1` [timolol, reference compound]: in test [2] (positive control), the “dose-response curve for inhibition of IOP relative to TRPV4 antagonists” value was “left-shifted dose-response curve”.
